Test results reported in ChEMBL document CHEMBL1201862, “PubChem BioAssay data set” (2004).
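In this assay, cells in 96-well plates receive the compound at five concentrations for 48 hours. Endpoints are linearly interpolated between the surrounding concentrations. The concentration for 50% growth inhibition is given as GI50.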 Activity calls are given as the source filed them. Cut-off read from the data, not from the text of the source: active = GI50 up to about 1.1 µM and inactive = higher.

Assays:
Assay in all cases: growth of human tumour cells (NCI), 48 h
HCT-15 = system: HCT-15
RXF 393 = system: RXF 393
A549 = system: A549
CCRF-CEM = system: CCRF-CEM
SNB-75 = system: SNB-75
RPMI-8226 = system: RPMI-8226
CAKI-1 = system: CAKI-1
NCI-H522 = system: NCI-H522
SN12C = system: SN12C
LOX IMVI = system: LOX IMVI
MOLT-4 = system: MOLT-4
SNB-19 = system: SNB-19
COLO 205 = system: COLO 205
M14 = system: M14
OVCAR-3 = system: OVCAR-3
MDA-MB-231 = system: MDA-MB-231
OVCAR-4 = system: OVCAR-4
SW-620 = system: SW-620
KM12 = system: KM12
EKVX = system: EKVX
HCT-116 = system: HCT-116
IGROV-1 = system: IGROV-1
HT-29 = system: HT-29
SK-MEL-5 = system: SK-MEL-5
A498 = system: A498
UACC-62 = system: UACC-62
SF-295 = system: SF-295
UACC-257 = system: UACC-257
DU-145 = system: DU-145
U-251 = system: U-251
HL-60 = system: HL-60
SK-OV-3 = system: SK-OV-3
UO-31 = system: UO-31
T47D = system: T47D
NCI/ADR-RES = system: NCI/ADR-RES
SF-268 = system: SF-268
HOP-62 = system: HOP-62
ACHN = system: ACHN
NCI-H226 = system: NCI-H226
Hs-578T = system: Hs-578T
NCI-H460 = system: NCI-H460
SK-MEL-28 = system: SK-MEL-28
786-0 = system: 786-0
MDA-N = system: MDA-N
TK-10 = system: TK-10
HOP-92 = system: HOP-92
MDA-MB-435 = system: MDA-MB-435
MCF7 = system: MCF7
SF-539 = system: SF-539
OVCAR-5 = system: OVCAR-5
K562 = system: K562
NCI-H23 = system: NCI-H23
SK-MEL-2 = system: SK-MEL-2
PC-3 = system: PC-3
Malme-3M = system: Malme-3M
OVCAR-8 = system: OVCAR-8
HCC 2998 = system: HCC 2998
SR = system: SR
BT-549 = system: BT-549

For [BH3-][P+]1(CC[P@@+]([BH3-])(c2ccccc2)c2ccccc2OC)[C@@H](C)[C@@H](O)[C@H](O)[C@@H]1C (stereo partly drawn), the GI50 (HCT-15) was 17.5 µM, the GI50 (RXF 393) was 16.4 µM (inactive) and the GI50 (A549) was 14.1 µM (inactive). For the same molecule, the GI50 (CCRF-CEM) was 24.2 µM (inactive), the GI50 (SNB-75) was 14.8 µM (inactive) and the GI50 (RPMI-8226) was 23.4 µM (inactive). The GI50 (CAKI-1) was 15.6 µM (inactive), the GI50 (NCI-H522) was 12.4 µM (inactive) and the GI50 (SN12C) was 13.4 µM (inactive). For the same molecule, the GI50 (LOX IMVI) was 2.44 µM (inactive), the GI50 (MOLT-4) was 20.4 µM (inactive) and the GI50 (SNB-19) was 17 µM (inactive). For the same molecule, the GI50 (COLO 205) was 17.8 µM (inactive), the GI50 (M14) was 16.7 µM (inactive) and the GI50 (OVCAR-3) was 16.1 µM (inactive). The GI50 (MDA-MB-231) was 16 µM (inactive), the GI50 (OVCAR-4) was 16.8 µM (inactive) and the GI50 (SW-620) was 16.9 µM (inactive). For the same molecule, the GI50 (KM12) was 15.8 µM (inactive), the GI50 (EKVX) was 12.4 µM (inactive) and the GI50 (HCT-116) was 17.7 µM (inactive). For the same molecule, the GI50 (IGROV-1) was 17.3 µM (inactive), the GI50 (HT-29) was 22.6 µM (inactive) and the GI50 (SK-MEL-5) was 15.7 µM (inactive). For the same molecule, the GI50 (A498) was 18 µM (inactive), the GI50 (UACC-62) was 14.8 µM (inactive) and the GI50 (SF-295) was 15.8 µM (inactive). For the same molecule, the GI50 (UACC-257) was 4.19 µM (inactive), the GI50 (DU-145) was 17.3 µM (inactive) and the GI50 (U-251) was 16.9 µM (inactive). For the same molecule, the GI50 (HL-60) was 23.2 µM (inactive), the GI50 (SK-OV-3) was 22.8 µM (inactive) and the GI50 (UO-31) was 10.1 µM (inactive). For the same molecule, the GI50 (T47D) was 15.9 µM (inactive), the GI50 (NCI/ADR-RES) was 16.5 µM (inactive) and the GI50 (SF-268) was 17.2 µM (inactive). The GI50 (HOP-62) was 16.9 µM (inactive), the GI50 (ACHN) was 17.6 µM (inactive) and the GI50 (NCI-H226) was 17.3 µM (inactive). The GI50 (Hs-578T) was 10.3 µM (inactive), the GI50 (NCI-H460) was 16.4 µM (inactive) and the GI50 (SK-MEL-28) was 17.9 µM (inactive). For the same molecule, the GI50 (786-0) was 27.2 µM (inactive), the GI50 (MDA-N) was 16 µM (inactive) and the GI50 (TK-10) was 17.8 µM (inactive). The GI50 (HOP-92) was 16.6 µM (inactive), the GI50 (MDA-MB-435) was 16.7 µM (inactive) and the GI50 (MCF7) was 18.2 µM (inactive). The GI50 (SF-539) was 16.5 µM (inactive), the GI50 (OVCAR-5) was 18.1 µM (inactive) and the GI50 (K562) was 26.1 µM (inactive). For the same molecule, the GI50 (NCI-H23) was 16 µM (inactive), the GI50 (SK-MEL-2) was 15.7 µM (inactive) and the GI50 (PC-3) was 15 µM (inactive). The GI50 (Malme-3M) was 11.2 µM (inactive) and the GI50 (OVCAR-8) was 17.5 µM (inactive).
With CCOC(=O)N1CCN(C(=O)Nc2cccc3ccccc23)CC1 the GI50 (HCT-15) was over 10 µM, the GI50 (RXF 393) was > 10 µM (inactive) and the GI50 (A549) was > 10 µM (inactive). The GI50 (CCRF-CEM) was > 10 µM (inactive), the GI50 (SNB-75) was > 10 µM (inactive) and the GI50 (RPMI-8226) was > 10 µM (inactive). For the same molecule, the GI50 (CAKI-1) was > 10 µM (inactive), the GI50 (NCI-H522) was > 10 µM (inactive) and the GI50 (HCC 2998) was > 10 µM (inactive). For the same molecule, the GI50 (SN12C) was > 10 µM (inactive), the GI50 (LOX IMVI) was > 10 µM (inactive) and the GI50 (MOLT-4) was > 10 µM (inactive). For the same molecule, the GI50 (SNB-19) was > 10 µM (inactive), the GI50 (COLO 205) was > 10 µM (inactive) and the GI50 (M14) was > 10 µM (inactive). The GI50 (OVCAR-3) was > 10 µM (inactive), the GI50 (MDA-MB-231) was > 10 µM (inactive) and the GI50 (OVCAR-4) was > 10 µM (inactive). The GI50 (SW-620) was > 10 µM (inactive), the GI50 (KM12) was > 10 µM (inactive) and the GI50 (EKVX) was > 10 µM (inactive). For the same molecule, the GI50 (HCT-116) was > 10 µM (inactive), the GI50 (IGROV-1) was > 10 µM (inactive) and the GI50 (HT-29) was > 10 µM (inactive). The GI50 (SK-MEL-5) was > 10 µM (inactive), the GI50 (A498) was > 10 µM (inactive) and the GI50 (UACC-62) was > 10 µM (inactive). For the same molecule, the GI50 (SF-295) was > 10 µM (inactive), the GI50 (DU-145) was > 10 µM (inactive) and the GI50 (U-251) was > 10 µM (inactive). For the same molecule, the GI50 (HL-60) was > 10 µM (inactive), the GI50 (SR) was > 10 µM (inactive) and the GI50 (SK-OV-3) was > 10 µM (inactive). The GI50 (UO-31) was > 10 µM (inactive), the GI50 (T47D) was > 10 µM (inactive) and the GI50 (NCI/ADR-RES) was > 10 µM (inactive). The GI50 (SF-268) was > 10 µM (inactive), the GI50 (HOP-62) was > 10 µM (inactive) and the GI50 (ACHN) was > 10 µM (inactive). The GI50 (NCI-H226) was > 10 µM (inactive), the GI50 (Hs-578T) was > 10 µM (inactive) and the GI50 (NCI-H460) was > 10 µM (inactive). The GI50 (SK-MEL-28) was > 10 µM (inactive), the GI50 (MDA-N) was > 10 µM (inactive) and the GI50 (TK-10) was > 10 µM (inactive). For the same molecule, the GI50 (MDA-MB-435) was > 10 µM (inactive), the GI50 (MCF7) was > 10 µM (inactive) and the GI50 (SF-539) was > 10 µM (inactive). For the same molecule, the GI50 (OVCAR-5) was > 10 µM (inactive), the GI50 (K562) was > 10 µM (inactive) and the GI50 (NCI-H23) was > 10 µM (inactive). The GI50 (SK-MEL-2) was > 10 µM (inactive), the GI50 (PC-3) was > 10 µM (inactive) and the GI50 (Malme-3M) was > 10 µM (inactive). For the same molecule, the GI50 (OVCAR-8) was > 10 µM (inactive).
In the case of C=CCN1C(=O)/C(=C/c2cccs2)N=C1SC1OC(COC(=O)c2ccccc2)C(OC(=O)c2ccccc2)C1OC(=O)c1ccccc1 (stereo not drawn), the GI50 (HCT-15) is reported as over 100 µM, the GI50 (RXF 393) is reported as > 100 µM (inactive) and the GI50 (CCRF-CEM) is reported as 53.5 µM (inactive). The GI50 (SNB-75) was > 100 µM (inactive), the GI50 (RPMI-8226) was 22.4 µM (inactive) and the GI50 (CAKI-1) was > 100 µM (inactive). The GI50 (NCI-H522) was 11.4 µM (inactive), the GI50 (HCC 2998) was > 100 µM (inactive) and the GI50 (LOX IMVI) was > 100 µM (inactive). The GI50 (MOLT-4) was > 100 µM (inactive), the GI50 (COLO 205) was > 100 µM (inactive) and the GI50 (OVCAR-3) was > 100 µM (inactive). The GI50 (MDA-MB-231) was > 100 µM (inactive), the GI50 (OVCAR-4) was > 100 µM (inactive) and the GI50 (SW-620) was > 100 µM (inactive). For the same molecule, the GI50 (KM12) was > 100 µM (inactive), the GI50 (EKVX) was > 100 µM (inactive) and the GI50 (IGROV-1) was > 100 µM (inactive). For the same molecule, the GI50 (SK-MEL-5) was > 100 µM (inactive), the GI50 (A498) was > 100 µM (inactive) and the GI50 (UACC-62) was > 100 µM (inactive). The GI50 (SF-295) was > 100 µM (inactive), the GI50 (UACC-257) was > 100 µM (inactive) and the GI50 (DU-145) was > 100 µM (inactive). For the same molecule, the GI50 (U-251) was > 100 µM (inactive), the GI50 (HL-60) was > 100 µM (inactive) and the GI50 (SR) was > 100 µM (inactive). For the same molecule, the GI50 (SK-OV-3) was > 100 µM (inactive), the GI50 (BT-549) was > 100 µM (inactive) and the GI50 (NCI/ADR-RES) was > 100 µM (inactive). For the same molecule, the GI50 (HOP-62) was > 100 µM (inactive), the GI50 (ACHN) was > 100 µM (inactive) and the GI50 (NCI-H226) was > 100 µM (inactive). For the same molecule, the GI50 (NCI-H460) was > 100 µM (inactive), the GI50 (SK-MEL-28) was > 100 µM (inactive) and the GI50 (TK-10) was > 100 µM (inactive). For the same molecule, the GI50 (HOP-92) was > 100 µM (inactive), the GI50 (MDA-MB-435) was > 100 µM (inactive) and the GI50 (MCF7) was 36.6 µM (inactive). The GI50 (SF-539) was > 100 µM (inactive), the GI50 (OVCAR-5) was > 100 µM (inactive) and the GI50 (K562) was > 100 µM (inactive). For the same molecule, the GI50 (NCI-H23) was > 100 µM (inactive), the GI50 (SK-MEL-2) was > 100 µM (inactive) and the GI50 (PC-3) was > 100 µM (inactive). The GI50 (Malme-3M) was > 100 µM (inactive) and the GI50 (OVCAR-8) was > 100 µM (inactive).
